Measurements taken from US20240294553A1, “SIZE-SELECTIVE ACYCLIC CHELATORS AND THEIR USE FOR THE RECOVERY OF RARE EARTH ELEMENTS” (UT-Battelle, LLC, priority 2023, published 2024).

Experiments:
[1] = Leaching of rare-earth elements from mixed rare-earth hydroxide; details: RT, 26 h, 20 mM lixiviant; for selectivity of leaching of REEs (percent dissolution): pH 8.2, CHES/CAPS buffer, 15 mg/mL (La,Nd,Eu,Dy,Y)OH3, FIG. 11
Experimental: A solution of CHES (400 mM) and CAPS (400 mM) was prepared in H2O. The pH was left unadjusted. Buffered solutions of acyclopa at pH 8.2, 9, and 10 were prepared by adding an aliquot of acyclopa (6.65 mL of a 75.17 mM aqueous stock solution) to a volumetric flask (25 mL) containing CHES/CAPS (12.5 mL). The solution was diluted with concentrated NaOH and H2O to the desired final pH. The final ligand concentration was 20 mM and the final CHES and CAPS concentrations were 200 mM each. Buffered solutions of EDTA were prepared in an analogous manner. For control samples without chelator, CHES/CAPS buffer (200 mM each) was prepared separately for each pH.
Leaching experiments were setup as follows: Various quantities (5±0.3 mg, 10±0.5 mg, and 15±0.5 mg) of (La,Nd,Eu,Dy,Y)OH3 were massed into 2 mL flat-bottomed screw-cap polypropylene tubes. An aliquot of lixiviant solution or buffer only (1 mL) was added to each tube. The samples were rotated end-over-end at 35 RPM and ambient temperature (71±1° F.). At pre-determined time points, the suspensions were centrifuged, and an aliquot of the supernatant (10 μL) was carefully removed and placed into 2% HNO3 (4.990 mL) for ICP-MS analysis. The samples were shaken to break up the pellets and returned to the rotating wheels. At the final time point, the suspensions were filtered via a 96-well filter plate (Pall AcroPrep Advance 0.2 μm Supor Short Tip) and sampled for ICP-MS. The final pH of representative samples was recorded. […] Also, the separation factor was calculated according to the equation below. The leaching of REEs (expressed as percent dissolution) from (La,Nd,Eu,Dy,Y)OH3 by acyclopa as a function of pH (pH 8.2, pH 9, or pH 10) using a CHES/CAPS buffer, RT, 26 h, 20 mM lixiviant, and 5 mg/mL (La,Nd,Eu,Dy,Y)OH3 are shown in FIG. 9. The leaching of REEs (expressed as concentration) from (La,Nd,Eu,Dy,Y)OH3 by acyclopa as a function of solid loading at a pH of 9 using a CHES/CAPS buffer, RT, 26 h, 20 mM lixiviant, and 5-15 mg/mL (La,Nd,Eu,Dy,Y)OH3 are shown in FIG. 10. […]

[2] = Protonation constants and lanthanide complex stabilities by potentiometric titration; format: binding
Experimental: Protonation constants and lanthanide (Ln) stability constants of acyclopa and acyclopa-XL were obtained by potentiometric titration using either a Metrohm Titrando 888 titrator or an 855 Robotic Titrosampler connected to an 805 Dosimat. Both titration systems were equipped with Ross Orion combination electrodes (8103BN, ThermoFisher Scientific), Metrohm 806 exchange units with automatic burets (10 mL), and Tiamo 2.5 software. The titration vessel was fitted with a removable glass cell and thermostated at 25° C. using an Isotemp 500LC recirculating chiller (Fisher Scientific). CO2 was excluded from the titration vessel using a small positive pressure of argon bubbled through 30 wt % KOH. […]
Before every ligand or ligand-metal titration, the electrode was calibrated in terms of the hydrogen-ion concentration by titrating a solution of standardized HCl (0.005 M) containing supporting electrolyte (KCl=0.095 M) with standardized KOH. Data within the pH ranges of 2.3-3.2 and 10.8-11.3 were analyzed using the program Glee (version 3.0.21) to obtain the standard electrode potential (E0) and slope factor. […] Their exact concentrations were determined potentiometrically from the two sharp endpoints of their titration curves using the formula ((VEP2−VEP1)/npKa)*[KOH]. […]

[3] = Recovery and reuse of acyclopa in multiple leach cycles (oxalic acid stripping)
Experimental: The release of REEs from acyclopa and their subsequent precipitation as REE2(C2O4)3 was investigated as a function of pH and oxalic acid equivalents. Pregnant leach solutions were prepared at pH 8.2 using acyclopa and La(OH)3, and varying equivalents of H2C2O4 were added. The pH of the samples was reduced stepwise to pH 6, 5, 4, and 3 using HCl. The concentration of La remaining in the supernatant at each pH was analyzed by ICP-MS. The release of REEs from acyclopa and their subsequent precipitation as REE2(C2O4)3 as a function of pH and oxalic acid equivalents is shown in FIG. 12.
Next, the ability to reuse acyclopa in multiple leach cycles was investigated. Leaching samples were prepared as described above at pH 8.2 using acyclopa and La(OH)3. […] To this solution, 2 equivalents of oxalic acid were added, and the pH was adjusted to 3 using HCl. The resulting precipitate was removed. The pH of the filtrate was re-adjusted to 8.2 using NaOH, and another portion of La(OH)3 was added. The suspension was stirred for 24 h, and the percent La dissolved was measured by ICP-MS. In subsequent precipitation cycles, only 1 equivalent of oxalic acid was added. Using this method, ˜75% dissolution was maintained over 4 dissolution/precipitation cycles. The results are shown graphically in FIG. 13.

Δ log KLa-Lu (difference of stability constants log KML) ([2]; 25° C., ionic strength 0.1 M KCl, La^3+ versus Lu^3+) | SMILES | selectivity of leaching of REEs (percent dissolution) [1] | affinity for rare-earth elements (in words) ([2]; log KML versus ionic radius, FIG. 6) | effect of increasing solid loading on La/Y separation ([1]; pH 9, CHES/CAPS buffer, 5-15 mg/mL (La,Nd,Eu,Dy,Y)OH3, FIG. 10) | percent La dissolved (dissolution of La(OH)3) ([3]; pH 8.2, 24 h, maintained over 4 dissolution/precipitation cycles, ICP-MS, FIG. 13) [%] | initial dissolution of La(OH)3 ([3]; pH 8.2, first leach)
– | O=C(O)CN(CCN(CC(=O)O)CC(=O)O)CC(=O)O [EDTA, ethylenediaminetetraacetic acid, reference compound] | fails to demonstrate any selectivity | – | – | – | –
4.27 | O=C(O)c1cccc(CN(CCO)CCOCCOCCN(CCO)Cc2cccc(C(=O)O)n2)n1 [acyclopa, 6,6′-(2,11-bis(2-hydroxyethyl)-5,8-dioxa-2,11-diazadodecane-1,12-diyl)dipicolinic acid] | preferentially leaches large over small REEs | high affinity for large, light REEs and low affinity for small, heavy REEs | significantly increases separative leaching of La from Y | ~75 | nearly all of the La(OH)3 was dissolved initially
